Our source for the logP values is the SangsterLogP compilation.

The data set is described as follows: method code SF-AS, from DOI: 10.1021/jm00305a054, PMID: 5812219.
The logP is a log measure of how a compound divides between an organic and an aqueous phase. A high value points to higher lipophilicity. As to `CC(C)C(=O)NC(=O)C1CCC1`, the logP came out at 0.26.

`CCCCCCCCCCCC(=O)NC(=O)C1CCC1` displayed a logP of 1.28. The result for `CC(C)(C)C(=O)NC(=O)C1CCC1` reads 0.53.

`CC(C)CC(=O)NC(=O)C1CCC1` came in with a logP of 0.48. This logP and that of the molecule before are within 0.2 log units of each other. Then `O=CNC(=O)C1CCC1`, with -0.7; and `CCCCCC(=O)NC(=O)C1CCC1`, with 0.89.

Molecule `CCCCCCCC(=O)NC(=O)C1CCC1` showed a log partition coefficient (logP) of 0.85. Regarding `CCCCC(=O)NC(=O)C1CCC1`, the logP stood at 0.75.

As for `CCCC(=O)NC(=O)C1CCC1`, the logP is 0.41. The result for `CC(=O)NC(=O)C1CCC1` reads -0.4.
